Experimental data from US20040039199A1, “Oxabispidine compound useful in the treatment of cardiac arrhythmias” (priority 2000, published 2004).

Tested on: Anaesthetised Guinea Pigs
Experiment: Test A: Primary electrophysiological effects in anaesthetised guinea pigs
Assay type: in vivo, guinea pig
Settings: index of class III electrophysiological potency; MAP duration at 75 percent repolarization during pacing; intravenous infusion, cumulative doses; derived from mean dose-response curve
Method: Primary Electrophysiological Effects In Anaesthetised Guinea Pigs
Guinea pigs weighing between 660 and 1100 g were used. The animals were housed for at least one week before the experiment and had free access to food and tap water during that period.
Anaesthesia was induced by an intraperitoneal injection of pentobarbital (40 to 50 mg/kg) and catheters were introduced into one carotid artery (for blood pressure recording and blood sampling) and into one jugular vein (for drug infusions). Needle electrodes were placed on the limbs for recording of ECGs (lead II). A thermistor was placed in the rectum and the animal was placed on a heating pad, set to a rectal temperature of between 37.5 and 38.5° C. […]
The left ventricular epicardium was exposed by a left-sided thoracotomy, and a custom-designed suction electrode for recording of the monophasic action potential (MAP) was applied to the left ventricular free wall. The electrode was kept in position as long as an acceptable signal could be recorded, otherwise it was moved to a new position. […]
The blood pressure, the MAP signal and the lead II ECG were recorded on a Mingograph ink-jet recorder (Siemens-Elema, Sweden). […] The signals were processed using a custom-made program developed for acquisition and analysis of physiological signals measured in experimental animals (see Axenborg and Hirsch, Comput. Methods Programs Biomed. 41, 55 (1993)). […]

CC(C)(C)C(=O)CN1CC2CN(CCCNc3ccc(C#N)cc3)CC(C1)O2.O=S(=O)(O)c1ccccc1 [Compound A, 4-({3-[7-(3,3-dimethyl-2-oxobutyl)-9-oxa-3,7-diazabicyclo[3.3.1]non-3-yl]propyl}amino)benzonitrile, benzenesulfonic acid salt]
D10 (cumulative dose prolonging the MAP duration by 10% from the baseline): 6.7
